Source: ChEMBL document CHEMBL4020713, “Identification of novel 2-(benzo[d]isoxazol-3-yl)-2-oxo-N-phenylacetohydrazonoyl cyanide analoguesas potent EPAC antagonists” (Eur J Med Chem, 2017)

What was measured:
[1] = biological target: T1, Rap guanine nucleotide exchange factor 4 (Mus musculus, UniProt Q9EQZ6); experiment: Antagonist activity at mouse EPAC2 assessed as inhibition of EPAC2-mediated Rap1B (1 to 167 residues)-BODIPY GDP nucleotide exchange activity
T1 sequence (Q9EQZ6 whole entry): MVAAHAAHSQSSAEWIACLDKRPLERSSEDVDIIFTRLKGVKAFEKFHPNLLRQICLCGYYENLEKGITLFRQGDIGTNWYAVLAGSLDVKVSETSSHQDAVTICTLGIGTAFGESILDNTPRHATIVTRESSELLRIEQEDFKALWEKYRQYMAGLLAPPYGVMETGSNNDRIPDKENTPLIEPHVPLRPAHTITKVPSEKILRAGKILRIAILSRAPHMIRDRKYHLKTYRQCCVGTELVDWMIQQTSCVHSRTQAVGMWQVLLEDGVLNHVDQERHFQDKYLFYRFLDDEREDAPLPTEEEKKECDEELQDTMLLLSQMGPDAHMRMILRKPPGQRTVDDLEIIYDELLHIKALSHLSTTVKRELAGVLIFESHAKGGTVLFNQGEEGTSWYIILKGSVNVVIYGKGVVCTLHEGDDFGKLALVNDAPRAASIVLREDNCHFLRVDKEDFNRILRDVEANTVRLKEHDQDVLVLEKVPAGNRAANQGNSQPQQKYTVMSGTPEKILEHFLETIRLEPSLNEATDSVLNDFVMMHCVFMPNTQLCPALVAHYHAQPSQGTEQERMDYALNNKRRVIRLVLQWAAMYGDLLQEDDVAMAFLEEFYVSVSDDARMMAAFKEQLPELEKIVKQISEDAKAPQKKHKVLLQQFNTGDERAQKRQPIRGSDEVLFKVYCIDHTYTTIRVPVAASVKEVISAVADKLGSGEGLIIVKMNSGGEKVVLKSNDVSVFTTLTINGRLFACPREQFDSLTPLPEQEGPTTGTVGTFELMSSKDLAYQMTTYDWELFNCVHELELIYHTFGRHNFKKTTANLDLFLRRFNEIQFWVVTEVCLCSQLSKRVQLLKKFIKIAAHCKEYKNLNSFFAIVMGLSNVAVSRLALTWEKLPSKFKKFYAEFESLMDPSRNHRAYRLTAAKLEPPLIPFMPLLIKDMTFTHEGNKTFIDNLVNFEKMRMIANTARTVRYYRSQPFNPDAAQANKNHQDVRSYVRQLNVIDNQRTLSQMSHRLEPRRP

[2] = biological target: T2, Rap guanine nucleotide exchange factor 3 (Homo sapiens, UniProt O95398); experiment: Antagonist activity at recombinant human full length EPAC1 assessed as inhibition of EPAC1-mediated Rap1B (1 to 167 residues)-BODIPY GDP nucleotide exchange activity in presence of 20 uM cAMP
T2 sequence (O95398 whole entry): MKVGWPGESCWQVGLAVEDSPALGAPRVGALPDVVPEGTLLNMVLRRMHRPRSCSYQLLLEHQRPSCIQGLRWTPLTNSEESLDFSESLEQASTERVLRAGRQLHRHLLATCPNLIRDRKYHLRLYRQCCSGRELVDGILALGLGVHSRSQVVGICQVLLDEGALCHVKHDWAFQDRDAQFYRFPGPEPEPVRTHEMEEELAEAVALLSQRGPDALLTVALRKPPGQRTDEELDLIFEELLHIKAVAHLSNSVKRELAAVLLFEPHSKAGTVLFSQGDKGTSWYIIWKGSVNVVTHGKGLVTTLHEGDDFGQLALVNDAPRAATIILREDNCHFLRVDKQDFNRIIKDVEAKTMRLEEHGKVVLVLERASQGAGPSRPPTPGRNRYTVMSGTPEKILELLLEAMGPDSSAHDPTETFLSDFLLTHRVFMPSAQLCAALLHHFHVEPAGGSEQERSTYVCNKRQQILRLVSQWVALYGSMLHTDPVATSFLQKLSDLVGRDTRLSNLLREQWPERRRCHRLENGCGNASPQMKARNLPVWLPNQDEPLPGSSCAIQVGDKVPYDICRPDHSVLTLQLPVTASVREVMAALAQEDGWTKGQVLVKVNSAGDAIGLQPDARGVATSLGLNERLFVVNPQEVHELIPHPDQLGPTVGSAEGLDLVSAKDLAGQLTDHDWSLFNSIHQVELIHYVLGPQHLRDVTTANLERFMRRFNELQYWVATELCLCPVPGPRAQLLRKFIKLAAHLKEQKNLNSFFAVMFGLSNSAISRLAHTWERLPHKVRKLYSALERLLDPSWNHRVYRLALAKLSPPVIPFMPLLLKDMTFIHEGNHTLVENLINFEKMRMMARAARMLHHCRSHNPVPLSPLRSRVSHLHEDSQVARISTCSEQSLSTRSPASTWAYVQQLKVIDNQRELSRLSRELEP

[3] = Ratio of IC50 for recombinant human full length EPAC1 to IC50 for mouse EPAC2

Row | SMILES | IC50 [1] [µM] | IC50 [2] [µM] | Ratio IC50 [3]
1 | COc1ccc(-c2cc(C(=O)/C(C#N)=N/Nc3cc(C(F)(F)F)cc(C(F)(F)F)c3)no2)cc1 | 7 | 5.6 | –
2 | N#C/C(=N\Nc1ccc(Cl)c(C(F)(F)F)c1)C(=O)c1cc(-c2ccco2)on1 | 2.3 | 4.2 | –
3 | CC(C)(C)c1ccc(-c2cc(C(=O)/C(C#N)=N/Nc3cccc(Cl)c3)no2)cc1 | – | 8.6 | –
4 | N#C/C(=N\Nc1ccc(C(F)(F)F)c(Cl)c1)C(=O)c1noc2ccccc12 | 2.2 | 3 | –
5 | N#C/C(=N\Nc1ccc(Cl)c(C(F)(F)F)c1)C(=O)c1noc2ccccc12 | 1.9 | 2.7 | –
6 | N#C/C(=N\Nc1ccc(F)c(Cl)c1)C(=O)c1noc2ccccc12 | – | 8.5 | –
7 | N#C/C(=N\Nc1cccc(Cl)c1)C(=O)c1noc2ccccc12 | – | 13.2 | –
8 | COc1ccc(-c2cc(C(=O)/C(C#N)=N/Nc3cccc(Cl)c3)no2)cc1 | – | 11.4 | –
9 | CC(C)(C)c1cc(C(=O)/C(C#N)=N/Nc2cccc(Cl)c2)no1 | 4.4 | – | 2.5
10 | N#C/C(=N\Nc1cc(F)cc(Cl)c1)C(=O)c1noc2ccccc12 | – | 18.9 | –
11 | CC(C)(C)c1ccc(-c2cc(C(=O)/C(C#N)=N/Nc3cc(C(F)(F)F)cc(C(F)(F)F)c3)no2)cc1 | – | 11.9 | –
12 | N#C/C(=N\Nc1ccc(Cl)c(C(F)(F)F)c1)C(=O)c1cc(-c2ccccc2)on1 | 2.3 | – | –
13 | N#C/C(=N\Nc1cc(Cl)cc(C(F)(F)F)c1)C(=O)c1cc(-c2ccccc2)on1 | – | 9.5 | –
14 | N#C/C(=N\Nc1cc(C(F)(F)F)cc(C(F)(F)F)c1)C(=O)c1noc2ccccc12 | – | 6.7 | –
15 | N#C/C(=N\Nc1cc(Cl)cc(C(F)(F)F)c1)C(=O)c1cc(-c2ccco2)on1 | 2.2 | 3.6 | –
16 | CC(C)(C)c1ccc(-c2cc(C(=O)/C(C#N)=N/Nc3ccc(C(F)(F)F)c(Cl)c3)no2)cc1 | – | 9 | –
17 | CC(C)(C)c1cc(C(=O)/C(C#N)=N/Nc2cc(Cl)c(Cl)c(Cl)c2)no1 | – | 2.7 | –
18 | N#C/C(=N\Nc1cc(C(F)(F)F)cc(C(F)(F)F)c1)C(=O)c1cc(-c2ccccc2)on1 | 3.3 | 7.2 | –
19 | N#C/C(=N\Nc1ccc(Cl)c(C(F)(F)F)c1)C(=O)c1cc(-c2ccc(Cl)cc2)on1 | – | 7.8 | –
20 | N#C/C(=N\Nc1cccc(Cl)c1)C(=O)c1cc(-c2ccco2)on1 | – | 9.9 | –
21 | CC(C)(C)c1ccc(-c2cc(C(=O)/C(C#N)=N/Nc3ccc(Cl)c(C(F)(F)F)c3)no2)cc1 | 2.2 | 7.3 | –
22 | COc1ccc(-c2cc(C(=O)/C(C#N)=N/Nc3ccc(Cl)c(C(F)(F)F)c3)no2)cc1 | 4.5 | – | –
23 | N#C/C(=N\Nc1cc(Cl)cc(C(F)(F)F)c1)C(=O)c1noc2ccccc12 | 2.2 | 4.6 | –
24 | N#C/C(=N\Nc1cccc(Cl)c1)C(=O)c1cc(-c2ccccc2)on1 | – | > 150 | –
